Data reported in article PMC10765375, “Crystal structure and enzymology of Solanum tuberosum inositol tris/tetrakisphosphate kinase 1 (StITPK1)” (Biochemistry, 2023).
Entries after “also recorded” stand apart in the source; their conditions may differ. Where a name gives a salt, the structure may show the parent alone. Read-outs that look alike come from different tables or passages of the source.

Experiments:
StITPK1 [1] = molecular target: T1, StITPK1 (Solanum tuberosum, UniProt A4H2J0); assay: Competition/inhibition of InsP6 5-phospho-kinase activity, HPLC; format: biochemical; details: 5 μM inhibitor, 1 mM InsP6
T1 sequence (A4H2J0 entry or part of it): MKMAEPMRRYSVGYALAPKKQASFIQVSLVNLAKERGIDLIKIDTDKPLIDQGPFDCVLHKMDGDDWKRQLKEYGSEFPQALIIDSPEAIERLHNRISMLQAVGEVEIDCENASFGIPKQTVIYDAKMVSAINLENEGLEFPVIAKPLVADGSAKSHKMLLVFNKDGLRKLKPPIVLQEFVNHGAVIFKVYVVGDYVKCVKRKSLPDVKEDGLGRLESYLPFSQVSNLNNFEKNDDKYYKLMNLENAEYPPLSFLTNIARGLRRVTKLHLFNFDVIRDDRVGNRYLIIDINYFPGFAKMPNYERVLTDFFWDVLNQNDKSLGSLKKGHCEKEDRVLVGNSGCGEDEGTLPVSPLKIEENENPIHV
Description: Figure 6 Inhibition of StITPK1 phospho-kinase activity by inositol pyrophosphate analogs. […] Reactions were performed for 2h at 30 °C with 3 μM StITPK1, 0.5 mM ATP, 1mM inositol phosphate in the absence or presence of competitor. The extent of inhibition at inhibitor concentration (mM) indicated by number in each column was estimated from the integrated peak areas of substrate and product peaks resolved by HPLC (example HPLC traces are shown in Figure S10). Significant difference at p=0.05 between inhibitor treatments (by One-way ANOVA and Tukey’s multiple comparisons test) is indicated by the absence of a common letter.
Schrödinger, LLC, New York, NY, 2021). All models of the complexes were subsequently energy minimized to convergence using the Prime module of Schrodinger (Schrödinger Release 2022-2: Prime) employing the all atom OPLS force field and the VSGB 2.1 implicit solvent model. Illustrations were generated using the PyMOL Molecular Graphics System, Version 2.5 (Schrödinger, LLC). […]
(§1) InsP6, and competitor, typically 0.5 mM, incubated with or without 3 µM protein for 2 h at 25 °C . […] Peak area data were analysed with the chromatography Jasco ChromNav v.2 software and x,y data were imported into GraphPad Prism v.6 software (GraphPad Software Inc., San Diego, USA) for plotting of chromatograms without additional processing of the data.
(§2) Fluorescence polarization (anisotropy) […]

AtITPK1 [2] = tested on: T2, AtITPK1; assay: Kinase assay with ATP, HPLC of products; format: biochemical, Arabidopsis thaliana; details: for kinase substrate status: with ATP, HPLC
T2 construct: made in house
Description: (§3) Kinase assays were performed with ATP-regeneration as described for ATP-grasp kinases ITPK1/2 and VIH1/2 [2-3, 27-29], here in 20 mM HEPES pH 6.5, 1 mM MgCl2, 0.5 mM ATP and 1 mM inositol phosphate substrate. The low rate constants for phospho-kinase activity and the low sensitivity of NMR, PAGE and HPLC […]
[2-3, 27-29], here with or without 4 µM protein for 3h or 12h at 25 °C. […]
(§4) 0.5 mM inositol pyrophosphate substrate incubated with 4 µM protein at 25 °C . HPLC analysis and detection of inositol phosphates by complexation with ferric ion was performed as described. Peak area data were analysed with the chromatography Jasco ChromNav v.2 software and x,y data were imported into GraphPad Prism v.6 software (GraphPad Software Inc., San Diego, USA) for plotting of chromatograms without additional processing of the data. […]

StITPK1 [3] = molecular target: T1, StITPK1; assay: Fluorescence polarization displacement of 2-FAM-InsP5; format: binding; details: Cheng-Prusoff with Kd 48 nM
From the text: To determine the relative strengths of binding of different inositol phosphate and inositol pyrophosphate substrates of StITPK1 we undertook fluorescence polarization experiments with 2-FAM-InsP5 [35]. […] A saturation curve for binding of 2-FAM-InsP5 to StITPK1 is shown (Figure S5) and displacement curves are shown for diverse inositol phosphates (Figure 2). The structures of these compounds are shown (Figure S1). […]
Fluorescence polarization (anisotropy)
A curve for binding of 2-FAM-InsP5 to StITPK1 was obtained by incubation of 2 nM 2-FAM-InsP5 [1] with increasing concentration (1-500 nM) of StITPK1 in 20 mM HEPES pH 6.5, 1 mM EDTA, 100 mM NaCl, after. Thereafter, displacement assays were performed by titration of inositol phosphate, inositol pyrophosphate […]
or analog thereof with 2 nM 2-FAM-InsP5 and 50 nM StITPK1. Compounds were tested for displacement in a range of 1 nM - 50 µM. Fluorescence polarization was measured in 384-well, black, low-binding plates, Corning product 3573. Binding and displacement curves (anisotropy) were log transformed and fitted to a 4-parameter logistic (in GraphPad Prism v.6 software (GraphPad Software Inc., San Diego, USA). Fitting of the […]
Substituting the value of Kd for KM in the Cheng-Prusoff equation for competitive inhibition: […]
with concentration of 2-FAM-InsP5 [S], yielded Ki with confidence intervals adjusted by linear approximation.
M.; Jamieson, A. G.; Potter, B. V.; Schwabe, J. W., Insights into the activation mechanism of class I HDAC complexes by inositol phosphates. Nat Commun 2016, 7, 11262. […]

AtITPK1 [4] = tested on: T2, AtITPK1; details: cited from earlier work
StITPK1 [5] = molecular target: T1, StITPK1; assay: Kinase assay with ATP, HPLC of products; format: biochemical; details: for kinase substrate status: with ATP, HPLC; for Product formation (3h) / Product formation (12h): 25°C
Description: as §3
(§5) [2-3, 27-29], here with or without 4 µM protein for 3h or 12h at 25 °C. Competition/inhibition assays were […]
InsP6, and competitor, typically 0.5 mM, incubated with or without 3 µM protein for 2 h at 25 °C . […]
as §4

StITPK1 [6] = molecular target: T1, StITPK1; assay: Competition/inhibition of Ins(1,2,3,4,5)P5 5-phospho-kinase activity, HPLC; format: biochemical; details: 0.5 mM competing substrate/inhibitor, 1 mM Ins(1,2,3,4,5)P5, 3h experiment
AtVIH2 = tested on: AtVIH2; set-up: method as in PMID 31436531; details: isolated kinase domain ref 24; cited from earlier work
StITPK1 [7] = molecular target: T1, StITPK1; assay: Fluorescence polarization saturation binding of 2-FAM-InsP5; details: 2 nM probe, 1-500 nM StITPK1, one-site binding model
Description: Schrödinger, LLC, New York, NY, 2021). All models of the complexes were subsequently energy minimized to convergence using the Prime module of Schrodinger (Schrödinger Release 2022-2: Prime) employing the all atom OPLS force field and the VSGB 2.1 implicit solvent model. Illustrations were generated using the PyMOL Molecular Graphics System, Version 2.5 (Schrödinger, LLC).
as §3, §5, §1, §2
or analog thereof with 2 nM 2-FAM-InsP5 and 50 nM StITPK1. […] Fluorescence polarization was measured in 384-well, black, low-binding plates, Corning product 3573. […]

[8] = 2 nM 2-FAM-InsP5, 50 nM StITPK1, pH 6.5, read-out: Ki for displacement of 2-FAM-InsP5

SMILES	inhibition of 5-PP-InsP5-synthesizing (InsP6 phospho-kinase) activity (StITPK1 [1])	Discrimination between InsP4 enantiomers in favour of Ins(3,4,5,6)P4 (AtITPK1 [2]; vs Ins(1,4,5,6)P4)	Ki (StITPK1 [3]; [8])	Vmax relative to InsP6 (AtITPK1 [4])	Discrimination between InsP4 enantiomers in favour of Ins(3,4,5,6)P4 (StITPK1 [5]; vs Ins(1,4,5,6)P4)	kinase substrate status (StITPK1 [5])	kinase substrate status (AtITPK1 [2])	% inhibition at 3h, Ins(1,2,3,4,5)P5 substrate (StITPK1 [6])	Product formation (3h) (StITPK1 [5]; 1 mM substrate)	Product formation (12h) (StITPK1 [5]; 1 mM substrate)	turnover number, 1-phospho-kinase activity (AtVIH2)	Kd (StITPK1 [7])	Ki (StITPK1 [3]; Ki for displacement of 2-FAM-InsP5, 2 nM 2-FAM-InsP5, 50 nM StITPK1, pH 6.5)	Kcat for phospho-kinase activity (AtITPK1 [4]; calculated from data ref 20-21, 27)	Product formation (separate 12h experiment) (StITPK1 [5]; 1 mM substrate, separate 12h experiment)	Kcat (turnover of substrate) (StITPK1 [5]; in the absence of inhibitor, 1 mM substrate, 0.5 mM ATP, pH 6.5)
O=P(O)(O)O[C@H]1[C@H](OP(=O)(O)O)[C@@H](OP(=O)(O)O)[C@@H](O)[C@@H](O)[C@@H]1OP(=O)(O)O [Ins(3,4,5,6)P4, 1D-myo-inositol 3,4,5,6-tetrakisphosphate]	particularly powerful inhibitor	~ 200 fold	716 nM	3 orders of magnitude greater	~ 200 fold	better substrate than both its enantiomer Ins(1,4,5,6)P4 and InsP6										
O=P(O)(O)O[C@H]1[C@@H](OP(=O)(O)O)[C@H](OP(=O)(O)O)[C@@H](OP(=O)(O)OP(=O)(O)O)[C@H](OP(=O)(O)O)[C@H]1OP(=O)(O)O [5-PP-InsP5, 5-diphospho-myo-inositol 1,2,3,4,6-pentakisphosphate]			162 nM			not a substrate	not a substrate	82%	0 μM/μM protein	0 μM/μM protein	~ 1 min^-1					
O=C(NCCO[C@H]1[C@@H](OP(=O)(O)O)[C@H](OP(=O)(O)O)[C@@H](OP(=O)(O)O)[C@H](OP(=O)(O)O)[C@H]1OP(=O)(O)O)c1ccc2c(c1)C(=O)OC21c2ccc(O)cc2Oc2cc(O)ccc21 [2-FAM-InsP5, 2-O-(2-(5-fluoresceinylcarboxy)-aminoethyl)-myo-inositol 1,3,4,5,6-pentakisphosphate (triethylammonium salt)]												48 nM				
O=P(O)(O)O[C@H]1[C@H](OP(=O)(O)O)[C@@H](OP(=O)(O)O)[C@H](OP(=O)(O)O)[C@@H](OP(=O)(O)O)[C@H]1OP(=O)(O)O [myo-InsP6, myo-inositol 1,2,3,4,5,6-hexakisphosphate]						generating 5-PP-InsP5; also recorded: strongest phospho-kinase substrate	strongest phospho-kinase substrate	89%	241 μM/μM protein	289 μM/μM protein	~ 0.4 min^-1		126 nM	~ 1.5 min^-1	220 μM/μM protein	~ 1.14 min^-1
